Usually DC50 stands for the midpoint of the concentration-degradation curve.

The test deals with T1, SHP2 protein (Homo sapiens, UniProt Q06124).
T1 sequence (Q06124 1-593): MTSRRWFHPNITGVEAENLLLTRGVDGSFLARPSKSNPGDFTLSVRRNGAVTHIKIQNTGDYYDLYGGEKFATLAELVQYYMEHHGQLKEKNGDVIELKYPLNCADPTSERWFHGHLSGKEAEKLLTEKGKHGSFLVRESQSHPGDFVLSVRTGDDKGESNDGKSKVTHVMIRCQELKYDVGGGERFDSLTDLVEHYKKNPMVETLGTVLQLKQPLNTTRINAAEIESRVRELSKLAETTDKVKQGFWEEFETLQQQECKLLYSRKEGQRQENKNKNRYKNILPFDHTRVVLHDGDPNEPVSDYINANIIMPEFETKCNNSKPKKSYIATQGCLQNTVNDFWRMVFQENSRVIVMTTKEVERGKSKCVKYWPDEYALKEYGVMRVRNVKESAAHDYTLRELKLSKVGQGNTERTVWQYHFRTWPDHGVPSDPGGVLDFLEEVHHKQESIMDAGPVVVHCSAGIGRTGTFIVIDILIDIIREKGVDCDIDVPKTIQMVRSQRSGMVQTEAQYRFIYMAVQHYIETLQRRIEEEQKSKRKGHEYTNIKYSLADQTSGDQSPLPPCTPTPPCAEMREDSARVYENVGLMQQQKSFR
As to the kind of experiment: Degradation activity on SHP2 protein in MV-411 cells (Western blot, DC50). To be noted: MV411 cells, 24 hours, read-out: Degradation activity for differenct cell lines MV411 (DC50). On the set-up: endogenous in cells. The format is cell-based. As to the method: • MV-411 cell line (COBIER, CBP-60522) • FBS (GEMINI, Cat. No. 900-108) • 0.01M PBS (Biosharp, Cat. No. 162262) • IMDM (Hyclone, Cat. No. SH30228.01) • Penicillin-Streptomycin (Gibco, Cat. No. 15140122) • DMSO (Sigma, Cat. No. D5879) • Centrifuge Tube, 15 ml (Excell Bio, Cat. No. CS015-0001) • Cell Culture Dish, (WHB, Cat. No. CS016-0128) • 12-well cell culture cluster (Corning, Cat. No. 3513) • RIPA lysate buffer (Thermo, Cat. No. 89900) • Protein Loding Buffer (Beyotime, Cat. No. P0015L) • BCA Protein Assay Kit (EpiZyme, Cat. No. ZJ102) • SDS-PAGE Fast Preparation Kit (EpiZyme, Cat. No. PG112) • Anti-GAPDH (14C10) Rabbit mAb (CST, Cat. No. 2118L) • Anti-SHP2 rabbit mAb (CST, Cat. No. 37525) • Peroxidase Affinipure (HRP) Goat Anti-Rabbit IgG (Zen Bioscience, Cat. No. 511203) • TBST (Biosharp, Cat. No. BL601A) • ECL chemiluminescence kit (4A Biotech, Cat. No. 4AW011-200)
• (1) Cell culture medium: IMIDM medium+10% FBS+1% Pen Strep; • (2) PBS buffer: PBS powder was dissolved in 2 L of ultrapure water and sterilized; • (3) Cell lysate: RIPA lysate buffer is added with protease inhibitors at a ratio of 1:1000 before use.
(1) MV-411 cells were cultured in the cell culture medium, and then well-growing cells were selected and inoculated in a 12-well plate, with 1 mL/well and 1×10^6 cells/well. The plate was incubated overnight in a 5% CO2 cell incubator at 37° C.
(2) 10 mM storage solution of each drug was prepared using dimethylsulfoxide (DMSO). The stock solution was diluted gradually with DMSO before use, and then 1 μL of the compound solution was added to the cell culture well (to ensure that the DMSO concentration in the culture system was […]), so that the final drug concentration is 100 nM, 10 nM, 3 nM, 1 nM, 0.3 nM, and 0.1 nM. Two wells were set for each concentration. The plate was gently shaken and mixed. Additionally, negative control wells (containing an equal amount of DMSO) and positive control wells were included.
(3) After 24 hours of cultivation, the cells were lysed using RIPA cell lysate, and the proteins were extracted. The protein concentration was measured using a BCA assay kit. 5× concentrated protein buffer was loaded, heated at 100° C. for 5 min, and then the sample was stored at −20° C.
(4) For each well, 30 μg of protein was loaded to polyacrylamide gel for electrophoresis.
(5) The protein was transferred from polyacrylamide gel to PVDF membrane, and sealed at room temperature with 5% skimmed milk for 1 h, which was then incubated with the primary antibodies (Anti-SHP2 rabbit mAb and Anti-GAPDH rabbit mAb) at 4° C. overnight. The membrane was washed three times with TBST solution, 10 minutes for each time. After that, the membrane was incubated with the secondary antibodies (horseradish peroxidase labeled goat anti-rabbit IgG) at room temperature for 2 h, and then washed three times with TBST solution, 10 minutes for each time, followed by exposure.
(6) The images were analyzed with Image J grayscale, and the degradation ratio of protein bands in the test group was calculated, based on the negative control group (DMSO) (100%).
(7) Using the Dose-response-inhibition equation in the data processing software GraphPad Prism 8, the DC50 value was obtained (which represents the drug concentration corresponding to 50% degradation of the target protein).
Finally, ECL detection solution was added for color development, and photos were taken with an automatic chemiluminescence instrument, so as to collect images and analyze them.
(A western blot detects proteins with antibodies after separation by electrophoresis.)
In the case of `CC1(N)CCN(c2cnc(Sc3cccc(NC(=O)CCCCCCCN4CC5(CCN(Cc6ccc(COc7cccc8c7CN(C7CCC(=O)NC7=O)C8=O)cc6)C5)C4)c3)cn2)CC1` (stereo not drawn) [Compound 68], the DC50 was less than 100 nM.
As to `CC1(N)CCN(c2cnc(Sc3cccc(NC(=O)CCN4CC5(CCN(Cc6ccc(COc7cccc8c7CN(C7CCC(=O)NC7=O)C8=O)cc6)C5)C4)c3)cn2)CC1` (stereo not drawn) [Compound 69], the DC50 was more than 1000 nM.
As for `CC1(N)CCN(c2cnc(Sc3cccc(NC(=O)CCCCCCCN4CC5(CCN(c6ncc(C(=O)NCc7ccc8c(c7)CN(C7CCC(=O)NC7=O)C8=O)cn6)C5)C4)c3)cn2)CC1` (stereo not drawn) [Compound 70], the DC50 was less than 100 nM.
The result for `Cc1ncsc1-c1ccc([C@H](C)NC(=O)[C@@H]2C[C@@H](O)CN2C(=O)[C@@H](NC(=O)c2cnc(N3CCC4(CN(CCCCCCCC(=O)Nc5cccc(Sc6cnc(N7CCC(C)(N)CC7)cn6)c5)C4)C3)nc2)C(C)(C)C)cc1` [Compound 71] reads less than 100 nM; that for `CC1(N)CCN(c2cnc(Sc3cccc(NC(=O)CCCCCCCN4CCN(c5ncc(C(=O)NCc6ccc7c(c6)CN(C6CCC(=O)NC6=O)C7=O)cn5)CC4)c3)cn2)CC1` (stereo not drawn) [Compound 72], less than 100 nM.
`Cc1ncsc1-c1ccc([C@H](C)NC(=O)[C@@H]2C[C@@H](O)CN2C(=O)[C@@H](NC(=O)c2cnc(N3CCN(CCCCCCCC(=O)Nc4cccc(Sc5cnc(N6CCC(C)(N)CC6)cn5)c4)CC3)nc2)C(C)(C)C)cc1` [Compound 73]: the DC50 was less than 100 nM.
Next, `Cc1ncsc1-c1ccc([C@H](C)NC(=O)[C@@H]2C[C@@H](O)CN2C(=O)[C@@H](NC(=O)CCCCCCCCN2CCN(C(=O)C3CC3C(=O)Nc3cccc(Sc4cnc(N5CCC(C)(N)CC5)cn4)c3)CC2)C(C)(C)C)cc1` (stereo partly drawn) [Compound 77]: less than 100 nM; `Cc1cc(C(=O)NCc2ccc3c(c2)CN(C2CCC(=O)NC2=O)C3=O)n(C2CCN(CCCCCCCCC(=O)Nc3cccc(Sc4cnc(N5CCC(C)(N)CC5)cn4)c3)CC2)n1` (stereo not drawn) [Compound 80]: less than 100 nM.
Turning to `CC1(N)CCN(c2cnc(Sc3cccc(NC(=O)CCCCCCCN4CC5(C4)CN(c4ccc(C(=O)NCc6ccc7c(c6)CN(C6CCC(=O)NC6=O)C7=O)nn4)C5)c3)cn2)CC1` (stereo not drawn) [Compound 81], the DC50 was less than 100 nM.
The result for `Cc1ncsc1-c1ccc([C@H](C)NC(=O)[C@@H]2C[C@@H](O)CN2C(=O)[C@@H](NC(=O)c2cnc(N3CCN(CCCC(=O)Nc4cccc(Sc5cnc(N6CCC(C)(N)CC6)cn5)c4)CC3)nc2)C(C)(C)C)cc1` [Compound 82] reads less than 100 nM; that for `CC1(N)CCN(c2cnc(Sc3cccc(NC(=O)CCCN4CCN(c5ncc(C(=O)NCc6ccc7c(c6)CN(C6CCC(=O)NC6=O)C7=O)cn5)CC4)c3)cn2)CC1` (stereo not drawn) [Compound 83], more than 1000 nM; that for `CC1(N)CCN(c2cnc(Sc3cccc(NC(=O)CCN4CCN(Cc5ccc(COc6cccc7c6CN(C6CCC(=O)NC6=O)C7=O)cc5)CC4)c3)cn2)CC1` (stereo not drawn) [Compound 84], more than 1000 nM.
The result for `CC(=O)NC1(C)CCN(c2cnc(Sc3cccc(NC(=O)CCCCCCCCN4CCN(c5ncc(C(=O)NCc6ccc7c(c6)CN(C6CCC(=O)NC6=O)C7=O)cn5)CC4)c3)cn2)CC1` (stereo not drawn) [Compound 85] reads more than 1000 nM; that for `CC1(N)CCN(c2cnc(Sc3cccc(NC(=O)CCCCCCOC4CN(c5ncc(C(=O)NCc6ccc7c(c6)CN(C6CCC(=O)NC6=O)C7=O)cn5)C4)c3)cn2)CC1` (stereo not drawn) [Compound 87], less than 100 nM.
Next, `Cc1ncsc1-c1ccc([C@H](C)NC(=O)[C@@H]2C[C@@H](O)CN2C(=O)[C@@H](NC(=O)c2cnc(N3CCC4(CN(CCCCC(=O)Nc5cccc(Sc6cnc(N7CCC(C)(N)CC7)cn6)c5)C4)C3)nc2)C(C)(C)C)cc1` [Compound 88]: less than 100 nM.
For the compound `CC1(N)CCN(c2cnc(Sc3cccc(NC(=O)CCCCN4CC5(CCN(c6ncc(C(=O)NCc7ccc8c(c7)CN(C7CCC(=O)NC7=O)C8=O)cn6)C5)C4)c3)cn2)CC1` (stereo not drawn) [Compound 89], the DC50 was less than 100 nM.
In the case of `CC1(N)CCN(c2cnc(Sc3cccc(NC(=O)CCCCCCCOC4CCN(c5ncc(C(=O)Nc6cccc7c6CN(C6CCC(=O)NC6=O)C7=O)cn5)CC4)c3)cn2)CC1` (stereo not drawn) [Compound 92], the DC50 is more than 1000 nM.
Next, `CC1(N)CCN(c2cnc(Sc3cccc(NC(=O)CCCCCCCOC4CCN(c5ncc(C(=O)Nc6ccc7c(c6)CN(C6CCC(=O)NC6=O)C7=O)cn5)CC4)c3)cn2)CC1` (stereo not drawn) [Compound 93]: less than 100 nM.
Next, `CC1(N)CCN(c2cnc(Sc3cccc(NC(=O)CCCCCCCOC4CCN(c5ncc(C(=O)Nc6ccc7c(c6)C(=O)N(C6CCC(=O)NC6=O)C7)cn5)CC4)c3)cn2)CC1` (stereo not drawn) [Compound 94]: more than 1000 nM; `CC1(N)CCN(c2cnc(Sc3cccc(NC(=O)CCCCCCCN4CC5CN(Cc6ccc(COc7cccc8c7CN(C7CCC(=O)NC7=O)C8=O)cc6)CC5C4)c3)cn2)CC1` (stereo not drawn) [Compound 95]: less than 100 nM.
Take `CC1(N)CCN(c2cnc(Sc3cccc(NC(=O)CCN4CC5(CCN(c6ccc(C(=O)NCc7ccc8c(c7)CN(C7CCC(=O)NC7=O)C8=O)nn6)C5)C4)c3)cn2)CC1` (stereo not drawn) [Compound 97]: the DC50 was more than 1000 nM.
The result for `Cc1ncsc1-c1ccc([C@H](C)NC(=O)[C@@H]2C[C@@H](O)CN2C(=O)[C@@H](NC(=O)c2ccc(N3CC4CN(CCCCCCCC(=O)Nc5cccc(Sc6cnc(N7CCC(C)(N)CC7)cn6)c5)CC4C3)nn2)C(C)(C)C)cc1` (stereo partly drawn) [Compound 99] reads less than 100 nM; that for `Cc1ncsc1-c1ccc([C@H](C)NC(=O)[C@@H]2C[C@@H](O)CN2C(=O)[C@@H](NC(=O)c2ccc(N3CC[C@H](OCCCCCCCC(=O)Nc4cccc(Sc5cnc(N6CCC(C)(N)CC6)cn5)c4)C3)nn2)C(C)(C)C)cc1` [Compound 101], less than 100 nM; that for `Cc1ncsc1-c1ccc([C@H](C)NC(=O)[C@@H]2C[C@@H](O)CN2C(=O)[C@@H](NC(=O)c2cnc(N3CC[C@@H](OCCCCCCCC(=O)Nc4cccc(Sc5cnc(N6CCC(C)(N)CC6)cn5)c4)C3)nc2)C(C)(C)C)cc1` [Compound 103], less than 100 nM.
In the case of `CC1(N)CCN(c2cnc(Sc3cccc(NC(=O)CCCCCCCN4CC5(CCN(c6ccc(C(=O)NCc7ccc8c(c7)CN(C7CCC(=O)NC7=O)C8=O)nn6)C5)C4)c3)cn2)CC1` (stereo not drawn) [Compound 106], the DC50 was less than 100 nM.
Next, `C[C@@H]1OCC2(CCN(c3cnc(Sc4cccc(NC(=O)CCN5CC6(CCN(c7ccc(C(=O)NCc8ccc9c(c8)CN(C8CCC(=O)NC8=O)C9=O)nn7)C6)C5)c4)cn3)CC2)[C@@H]1N` (stereo partly drawn) [Compound 108]: less than 100 nM.
Next, `C[C@@H]1OCC2(CCN(c3cnc(Sc4cccc(NC(=O)CCCCN5CC6(CCN(c7ccc(C(=O)NCc8ccc9c(c8)CN(C8CCC(=O)NC8=O)C9=O)nn7)C6)C5)c4)cn3)CC2)[C@@H]1N` (stereo partly drawn) [Compound 109]: less than 100 nM.

These data come from patent US20240383908A1, “SYNTHESIS AND APPLICATION OF PHOSPHATASE DEGRADER” (HINOVA PHARMACEUTICALS INC., priority 2021, published 2024).
